In the NIST ThermoML archive (doi:10.1016/j.fluid.2005.11.020):
Several values for one entry are separate records, joined by “and”; a condition that tells them apart may be missing. Equal values may be shown once. Numbers after ± are expanded uncertainties.

Details: Liquid; for mass density: 293.2 K, 101.33 kPa, Vibrating tube method; for vapor or sublimation pressure: Ebulliometric method (Recirculating still)

vapor or sublimation pressure (371.3 K)	vapor or sublimation pressure (371.4 K)	vapor or sublimation pressure (357.5 K)	Structure (SMILES)	mass density	vapor or sublimation pressure (404.6 K)	vapor or sublimation pressure (428.8 K)
–	–	–	Clc1ccccc1 [chlorobenzene]	1106.07 ± 0.3 kg/m3	100.82 ± 1 kPa	–
100.91 ± 1 kPa and 100.6 ± 1 kPa	100.95 ± 1 kPa	–	CCCCCCC [heptane]	683.53 ± 0.27 kg/m3	–	–
–	–	100.55 ± 1 kPa	Fc1ccccc1 [fluorobenzene]	1022.27 ± 0.27 kg/m3	–	–
–	–	–	Brc1ccccc1 [bromobenzene]	1495.28 ± 0.48 kg/m3	–	100.91 ± 1 kPa
